Activity calls are given as the source filed them.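 The calls were made as follows: active = dose-dependent response absent in non-induced cells, with a sigmoidal fit giving a valid half-maximal concentration; inactive = the rest.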
Biological target: Chromaffin granule amine transporter (Homo sapiens) (UniProt P54219)
Assay: VMAT1 monoamine transport blockade – FFN206 fluorescent substrate, HEK-293 overexpressing cells, dose response (AID 1794818)
Settings: HEK-293 SLC18A1 OE, FFN206 uptake fluorescence

Chain of Chromaffin granule amine transporter (Homo sapiens) (P54219 whole entry, looked up): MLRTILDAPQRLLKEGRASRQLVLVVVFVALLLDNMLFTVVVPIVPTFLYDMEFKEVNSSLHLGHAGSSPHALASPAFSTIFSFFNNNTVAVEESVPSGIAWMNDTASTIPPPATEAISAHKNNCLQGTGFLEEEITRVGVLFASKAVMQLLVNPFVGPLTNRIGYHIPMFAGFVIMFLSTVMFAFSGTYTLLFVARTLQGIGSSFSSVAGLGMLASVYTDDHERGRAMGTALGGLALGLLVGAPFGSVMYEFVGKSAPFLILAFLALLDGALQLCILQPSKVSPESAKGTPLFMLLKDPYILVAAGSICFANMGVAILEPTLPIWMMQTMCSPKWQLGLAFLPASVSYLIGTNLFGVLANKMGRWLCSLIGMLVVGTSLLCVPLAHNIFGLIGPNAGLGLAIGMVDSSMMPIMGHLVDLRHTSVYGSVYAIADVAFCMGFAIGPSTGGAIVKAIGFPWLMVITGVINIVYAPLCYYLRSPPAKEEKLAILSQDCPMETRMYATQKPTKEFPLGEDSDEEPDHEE

`COC(=O)[C@H]1[C@H]2C[C@@H]3c4[nH]c5cc(OC)ccc5c4CCN3C[C@H]2C[C@@H](OC(=O)c2cc(OC)c(OC)c(OC)c2)[C@@H]1OC` showed an IC50 of 50 nM.
In the case of `CNc1ccc2c(CCN)cc(=O)oc2c1`, the IC50 is reported as 2000 nM.
`COc1cc2c(cc1OC)C1CC(=O)C(CC(C)C)CN1CC2` (stereo not drawn) was tested, and the outcome was “inactive”.
